Measurements as given in PubChem BioAssay (NCI).
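1) Cells in 96-well plates. 2) Compound, 48 h, 5 concentrations. 3) Linear interpolation between surrounding doses. 4) Unreached endpoint = highest concentration. TGI is the concentration that stops growth completely.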

What was measured:
Assay in all cases: NCI-60 cell line screen, 48 h
786-0 renal = tested on: 786-0 renal
A498 renal = tested on: A498 renal
A549 NSCLC = tested on: A549 NSCLC
ACHN renal = tested on: ACHN renal
CAKI-1 renal = tested on: CAKI-1 renal
CCRF-CEM leukemia = tested on: CCRF-CEM leukemia
COLO 205 colon = tested on: COLO 205 colon
DLD-1 colon = tested on: DLD-1 colon
DMS 114 small cell lung = tested on: DMS 114 small cell lung
DMS 273 small cell lung = tested on: DMS 273 small cell lung
EKVX NSCLC = tested on: EKVX NSCLC
HCC-2998 colon = tested on: HCC-2998 colon
HCT-116 colon = tested on: HCT-116 colon
HL-60(TB) leukemia = tested on: HL-60(TB) leukemia
HOP-18 NSCLC = tested on: HOP-18 NSCLC
HOP-62 NSCLC = tested on: HOP-62 NSCLC
HOP-92 NSCLC = tested on: HOP-92 NSCLC
HT29 colon = tested on: HT29 colon
IGROV1 ovarian = tested on: IGROV1 ovarian
K-562 leukemia = tested on: K-562 leukemia
KM12 colon = tested on: KM12 colon
KM20L2 colon = tested on: KM20L2 colon
LOX IMVI melanoma = tested on: LOX IMVI melanoma
LXFL 529 NSCLC = tested on: LXFL 529 NSCLC
M14 melanoma = tested on: M14 melanoma
M19-MEL melanoma = tested on: M19-MEL melanoma
MALME-3M melanoma = tested on: MALME-3M melanoma
MOLT-4 leukemia = tested on: MOLT-4 leukemia
NCI-H226 lung = tested on: NCI-H226 lung
NCI-H23 lung = tested on: NCI-H23 lung
NCI-H460 lung = tested on: NCI-H460 lung
NCI-H522 lung = tested on: NCI-H522 lung
OVCAR-3 ovarian = tested on: OVCAR-3 ovarian
OVCAR-4 ovarian = tested on: OVCAR-4 ovarian
OVCAR-5 ovarian = tested on: OVCAR-5 ovarian
OVCAR-8 ovarian = tested on: OVCAR-8 ovarian
RPMI-8226 leukemia = tested on: RPMI-8226 leukemia
RXF 393 renal = tested on: RXF 393 renal
RXF-631 renal = tested on: RXF-631 renal
SF-268 CNS = tested on: SF-268 CNS
SF-295 CNS = tested on: SF-295 CNS
SF-539 CNS = tested on: SF-539 CNS
SK-MEL-28 melanoma = tested on: SK-MEL-28 melanoma
SK-OV-3 ovarian = tested on: SK-OV-3 ovarian
SN12C renal = tested on: SN12C renal
SNB-19 CNS = tested on: SNB-19 CNS
SNB-75 CNS = tested on: SNB-75 CNS
SNB-78 CNS = tested on: SNB-78 CNS
SR leukemia = tested on: SR leukemia
SW-620 colon = tested on: SW-620 colon
TK-10 renal = tested on: TK-10 renal
U251 CNS = tested on: U251 CNS
UACC-257 melanoma = tested on: UACC-257 melanoma
UACC-62 melanoma = tested on: UACC-62 melanoma
UO-31 renal = tested on: UO-31 renal
XF 498 CNS = tested on: XF 498 CNS
HCT-15 colon = tested on: HCT-15 colon
SK-MEL-2 melanoma = tested on: SK-MEL-2 melanoma
SK-MEL-5 melanoma = tested on: SK-MEL-5 melanoma

CCOC(=N)/C(=C1\OC(N)=C(c2ccc(Cl)cc2)C1=O)c1ccc(Cl)cc1
TGI (786-0 renal): 32.7 µM
TGI (A498 renal): 32.5 µM
TGI (A549 NSCLC): 66.7 µM
TGI (ACHN renal): 51 µM
TGI (CAKI-1 renal): 62.8 µM
TGI (CCRF-CEM leukemia): 65.6 µM
TGI (COLO 205 colon): 30.2 µM
TGI (DLD-1 colon): 28.8 µM
TGI (DMS 114 small cell lung): 40.6 µM
TGI (DMS 273 small cell lung): 34.4 µM
TGI (EKVX NSCLC): 32.7 µM
TGI (HCC-2998 colon): 32.7 µM
TGI (HCT-116 colon): 30.7 µM
TGI (HL-60(TB) leukemia): 42 µM
TGI (HOP-18 NSCLC): 72.6 µM
TGI (HOP-62 NSCLC): 43.6 µM
TGI (HOP-92 NSCLC): 34 µM
TGI (HT29 colon): 52.6 µM
TGI (IGROV1 ovarian): > 100 µM
TGI (K-562 leukemia): 53.6 µM
TGI (KM12 colon): 34.4 µM
TGI (KM20L2 colon): 37.1 µM
TGI (LOX IMVI melanoma): 28.1 µM
TGI (LXFL 529 NSCLC): 27.8 µM
TGI (M14 melanoma): 31.6 µM
TGI (M19-MEL melanoma): 34.7 µM
TGI (MALME-3M melanoma): 28.2 µM
TGI (MOLT-4 leukemia): 52.1 µM
TGI (NCI-H226 lung): 49.9 µM
TGI (NCI-H23 lung): 28.6 µM
TGI (NCI-H460 lung): 46 µM
TGI (NCI-H522 lung): 29.4 µM
TGI (OVCAR-3 ovarian): 32.8 µM
TGI (OVCAR-4 ovarian): 31.9 µM
TGI (OVCAR-5 ovarian): 35 µM
TGI (OVCAR-8 ovarian): 28.7 µM
TGI (RPMI-8226 leukemia): 47.6 µM
TGI (RXF 393 renal): 27.2 µM
TGI (RXF-631 renal): 80.4 µM
TGI (SF-268 CNS): 31.3 µM
TGI (SF-295 CNS): 55.8 µM
TGI (SF-539 CNS): 30.2 µM
TGI (SK-MEL-28 melanoma): 31.7 µM
TGI (SK-OV-3 ovarian): > 100 µM
TGI (SN12C renal): 28.6 µM
TGI (SNB-19 CNS): 49.9 µM
TGI (SNB-75 CNS): 38.5 µM
TGI (SNB-78 CNS): > 100 µM
TGI (SR leukemia): 56.5 µM
TGI (SW-620 colon): 32.1 µM
TGI (TK-10 renal): 51.9 µM
TGI (U251 CNS): 30.8 µM
TGI (UACC-257 melanoma): 35.1 µM
TGI (UACC-62 melanoma): 29 µM
TGI (UO-31 renal): 31.3 µM
TGI (XF 498 CNS): 23.6 µM

CCc1cc(CCC(=O)Nc2c(C)cccc2C)[nH]n1
TGI (786-0 renal): > 100 µM
TGI (A498 renal): > 100 µM
TGI (A549 NSCLC): > 100 µM
TGI (ACHN renal): > 100 µM
TGI (CAKI-1 renal): > 100 µM
TGI (CCRF-CEM leukemia): > 100 µM
TGI (COLO 205 colon): > 100 µM
TGI (DLD-1 colon): > 100 µM
TGI (DMS 273 small cell lung): > 100 µM
TGI (EKVX NSCLC): > 100 µM
TGI (HCC-2998 colon): > 100 µM
TGI (HCT-116 colon): > 100 µM
TGI (HCT-15 colon): > 100 µM
TGI (HL-60(TB) leukemia): > 100 µM
TGI (HOP-18 NSCLC): > 100 µM
TGI (HOP-62 NSCLC): > 100 µM
TGI (HOP-92 NSCLC): > 100 µM
TGI (HT29 colon): > 100 µM
TGI (IGROV1 ovarian): > 100 µM
TGI (K-562 leukemia): > 100 µM
TGI (KM12 colon): > 100 µM
TGI (KM20L2 colon): > 100 µM
TGI (LXFL 529 NSCLC): > 100 µM
TGI (M14 melanoma): > 100 µM
TGI (M19-MEL melanoma): > 100 µM
TGI (MALME-3M melanoma): > 100 µM
TGI (MOLT-4 leukemia): > 100 µM
TGI (NCI-H226 lung): > 100 µM
TGI (NCI-H23 lung): > 100 µM
TGI (NCI-H460 lung): > 100 µM
TGI (NCI-H522 lung): > 100 µM
TGI (OVCAR-3 ovarian): > 100 µM
TGI (OVCAR-4 ovarian): > 100 µM
TGI (OVCAR-5 ovarian): > 100 µM
TGI (OVCAR-8 ovarian): > 100 µM
TGI (RPMI-8226 leukemia): > 100 µM
TGI (RXF 393 renal): > 100 µM
TGI (RXF-631 renal): > 100 µM
TGI (SF-268 CNS): > 100 µM
TGI (SF-295 CNS): > 100 µM
TGI (SF-539 CNS): > 100 µM
TGI (SK-MEL-2 melanoma): > 100 µM
TGI (SK-MEL-28 melanoma): > 100 µM
TGI (SK-MEL-5 melanoma): > 100 µM
TGI (SK-OV-3 ovarian): > 100 µM
TGI (SN12C renal): > 100 µM
TGI (SNB-19 CNS): > 100 µM
TGI (SNB-75 CNS): > 100 µM
TGI (SNB-78 CNS): > 100 µM
TGI (SR leukemia): > 100 µM
TGI (SW-620 colon): > 100 µM
TGI (TK-10 renal): > 100 µM
TGI (U251 CNS): > 100 µM
TGI (UACC-257 melanoma): > 100 µM
TGI (UACC-62 melanoma): > 100 µM
TGI (UO-31 renal): > 100 µM
TGI (XF 498 CNS): > 100 µM

Cc1cc(N(CCC#N)S(C)(=O)=O)ccc1C=Nc1ccc(C(=O)NN2C(=O)/C(=C/c3ccc(N(CCC#N)CCC#N)cc3C)N=C2c2cc([N+](=O)[O-])ccc2Cl)cc1
TGI (786-0 renal): > 100 µM
TGI (A498 renal): > 100 µM
TGI (A549 NSCLC): > 100 µM
TGI (ACHN renal): > 100 µM
TGI (CAKI-1 renal): > 100 µM
TGI (CCRF-CEM leukemia): > 100 µM
TGI (COLO 205 colon): > 100 µM
TGI (DLD-1 colon): > 100 µM
TGI (DMS 114 small cell lung): > 100 µM
TGI (DMS 273 small cell lung): > 100 µM
TGI (EKVX NSCLC): > 100 µM
TGI (HCC-2998 colon): > 100 µM
TGI (HCT-116 colon): > 100 µM
TGI (HCT-15 colon): > 100 µM
TGI (HL-60(TB) leukemia): > 100 µM
TGI (HOP-18 NSCLC): > 100 µM
TGI (HOP-62 NSCLC): > 100 µM
TGI (HOP-92 NSCLC): > 100 µM
TGI (HT29 colon): > 100 µM
TGI (IGROV1 ovarian): > 100 µM
TGI (K-562 leukemia): > 100 µM
TGI (KM12 colon): > 100 µM
TGI (KM20L2 colon): > 100 µM
TGI (LOX IMVI melanoma): > 100 µM
TGI (LXFL 529 NSCLC): > 100 µM
TGI (M14 melanoma): > 100 µM
TGI (M19-MEL melanoma): > 100 µM
TGI (MALME-3M melanoma): > 100 µM
TGI (NCI-H226 lung): > 100 µM
TGI (NCI-H23 lung): > 100 µM
TGI (NCI-H460 lung): > 100 µM
TGI (NCI-H522 lung): > 100 µM
TGI (OVCAR-3 ovarian): > 100 µM
TGI (OVCAR-4 ovarian): > 100 µM
TGI (OVCAR-5 ovarian): > 100 µM
TGI (OVCAR-8 ovarian): > 100 µM
TGI (RPMI-8226 leukemia): > 100 µM
TGI (RXF 393 renal): > 100 µM
TGI (RXF-631 renal): > 100 µM
TGI (SF-268 CNS): > 100 µM
TGI (SF-539 CNS): > 100 µM
TGI (SK-MEL-2 melanoma): > 100 µM
TGI (SK-MEL-28 melanoma): > 100 µM
TGI (SK-MEL-5 melanoma): > 100 µM
TGI (SK-OV-3 ovarian): > 100 µM
TGI (SN12C renal): > 100 µM
TGI (SNB-19 CNS): > 100 µM
TGI (SNB-75 CNS): > 100 µM
TGI (SNB-78 CNS): > 100 µM
TGI (SW-620 colon): > 100 µM
TGI (TK-10 renal): > 100 µM
TGI (U251 CNS): > 100 µM
TGI (UACC-257 melanoma): > 100 µM
TGI (UACC-62 melanoma): > 100 µM
TGI (UO-31 renal): > 100 µM
TGI (XF 498 CNS): > 100 µM
